# Values of other authors as cited in patent EP1997479A1, “Stabilized amorphous candesartan cilexetil compositions for oral administration” (Helm AG, priority 2007, dated 2008).
smiles,measurement,value
"CCOc1nc2cccc(C(=O)OC(C)OC(=O)OC3CCCCC3)c2n1Cc1ccc(-c2ccccc2-c2nnn[nH]2)cc1 (racemic) [Candesartan cilexetil, (±)-1-(Cyclohexyloxycarbonyloxy)ethyl 2-ethoxy-1-[[2'-(1H-tetrazol-5-yl)biphenyl-4-yl]methyl]-1 H-benzimidazole-7-carboxylate]",solubility in water,low solubility in water
